No end group written: not given here.
What was measured:
[1] = Phase IIb randomised double blind trial in type 2 diabetics after stopping antidiabetic medication; type: in vivo, human
Description: 31 subjects (21 males and 10 females) with type 2 diabetes mellitus on one or more oral antidiabetic medication(s) were entered into a randomised double blind study of 16 weeks duration. At day 01 all antidiabetic medication was stopped. Patients were randomised to either the placebo group (group C) or one of 3 treatment groups described as Groups A, B or D. All groups received a total of 4 IM injections spaced one week apart starting from day 01. The placebo group (8 subjects) received 1.2 ml of saline containing 0.1% alhydrogel. Group A (7 subjects) received 1.51 mg of a peptide according to the invention (designated as NDX-71 herein) in 1.2 ml saline containing 0.1% alhydrogel. Group B (8 subjects) received 0.86 mg NDX-71 in 1.2 ml saline containing 0.1% alhydrogel. Group D (8 subjects) received a mixture of 3 peptides of the invention (0.92 mg NDX-71, 0.68 mg C80 and 0.71 mg F90) in 1.2 ml saline containing 0.1% alhydrogel. Placebo and study medications were visibly identical. The NDX-71 peptide used in this example was the B71 peptide used in Example 6. The C80 and F90 peptides used in this example were the C80 and F90 peptides used in Example 6.
At regular intervals throughout the study period patients underwent blood tests for clinical safety and glycaemic efficacy parameters. […] Clinical safety parameters in all groups were unchanged from baseline. There were no adverse events reported in the study attributable to the test substances.

human pancreatic α cells = test: Fluorescence microscopy: binding of biotinylated homodimer CDR peptides to human pancreatic α cells; type: cell-based; conditions: biotinylated homodimers; fluoresceinated antibiotin as second step reagent
Description: (§1) An N terminal cysteine was added to each of the hypervariable region sequences (CDR-L1-3 and CDR-H1-3, SEQ ID NOs:6 to 16) which were synthesised by Fmoc peptide synthesis and dimerised to form homodimers. Some of each of the homodimers was biotinylated; the biotinylated homodimers were then tested by fluorescence microscopy for their ability to bind to human pancreatic a cells (used as an indicator human tissue) by using fluoresceinated antibiotin as a second step reagent. […] The non-biotinylated homodimer peptides were then tested by ELISAs for their ability to bind to anti-TCR Vβ antibody and to cardiolipin as an indicator of phospholipids (Table 1).

anti-TCR Vβ antibody = test: ELISA binding to anti-TCR Vβ antibody; conditions: plate coated with homodimer peptide; for Optical density reading, ELISA, antigen α-TCRVβ antibody: tested against α-TCR Vβ, mean ± SD, three observations; for Ratio Test/Control: α-TCRVβ antibody vs PBS/culture medium control
Description: as §1

[2] = ELISA binding to cardiolipin as an indicator of phospholipids; conditions: for Ratio Test/Control: cardiolipin vs ethyl alcohol control; for Optical density reading, ELISA, antigen cardiolipin: plate coated with cardiolipin in ethyl alcohol, tested against antibody or homodimer peptide, mean ± SD, three observations
Description: as §1

Substance | glycaemic control after cessation of antidiabetic medication ([1]; 1.51 mg dose) | dose dependence of effect ([1]; 1.51 mg vs 0.86 mg) | HbA1c, treatment difference vs placebo (group C) ([1]; 21 male volunteers subset, high dose group A (1.51 mg), p<0.001) | corrected fructosamine, treatment difference vs placebo (group C) ([1]; 21 male volunteers subset, high dose group A (1.51 mg), p=0.001) | fasting glucose, treatment difference vs placebo (group C) ([1]; 21 male volunteers subset, high dose group A (1.51 mg), p=0.005) | mean HbA1c level ([1]; baseline, high dose treatment group (1.51 mg NDX-71)) [%] | mean HbA1c level ([1]; day 113, high dose treatment group (1.51 mg NDX-71)) [%] | HbA1c levels over time vs placebo group ([1]; high dose treatment group (1.51 mg NDX-71), p=0.02) | glycaemic control compared with placebo ([1]; lower dose of 0.86 mg) | ability to bind to human pancreatic α cells (human pancreatic α cells) | Optical density reading, ELISA, antigen α-TCRVβ antibody (anti-TCR Vβ antibody) | Ratio Test/Control (anti-TCR Vβ antibody) | Ratio Test/Control [2] | Optical density reading, ELISA, antigen cardiolipin [2]
NDX-71: homodimer of CDR-H2 derived monomer peptides, each SEQ ID NO:8 (NIYPSDSYTNYNQKFKD) plus an N terminal cysteine (SEQ ID NO:159) (chain 1 CNIYPSDSYTNYNQKFKD; chain 2 CNIYPSDSYTNYNQKFKD; cysteine pairing not given here; also: homodimer) | able to maintain good glycaemic control | dose response effect | Statistically significant treatment differences | Statistically significant treatment differences | Statistically significant treatment differences | 6.3 | 6.9 | significantly different from the placebo group | showed improvement as compared with placebo | bound to the pancreatic α cells | 0.307 ± 0.018 | 1.83 | 2.40 | 0.151 ± 0.020
CDR-H3: homodimer of CDR-H3 derived monomer peptides, each SEQ ID NO:10 (LRGLLPDY) plus an N terminal cysteine (SEQ ID NO:160) (chain 1 CLRGLLPDY; chain 2 CLRGLLPDY; cysteine pairing not given here; also: homodimer) |  |  |  |  |  |  |  |  |  | bound to the pancreatic α cells | 0.182 ± 0.009 | 2.00 | 2.16 | 0.132 ± 0.009
CDR-L3 (QQYNSYPLT; Protein Light chain HV3) |  |  |  |  |  |  |  |  |  | bound to the pancreatic α cells | 0.243 ± 0.008 | 1.74 | 2.23 | 0.254 ± 0.012

From patent publication US9243062B2, “Peptides for treatment and diagnosis of autoimmune disease” (priority 2005, dated 2016)
